From patent US11926619B2, “Certain pladienolide compounds and methods of use” (EISAI R&D MANAGEMENT CO., LTD., priority 2018, dated 2024) come the findings set out here.

Test [1] has as its system WiDr cells (colon cancer cells; wildtype SF3B1). Kind of test: Cell viability assay (CellTiter-Glo, 72 hr), WiDr cells. It is filed as cell-based. The settings on record: Homo sapiens; WiDr cells (wildtype SF3B1); read-out: WiDr GI50. Summed up: (§1)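 Cells at 2000/well were exposed to 9 compound concentrations (0.1% DMSO) in duplicate or triplicate for 72 hr at 37 °C. ATP was read by CellTiter-Glo against a time-zero plate and DMSO control growth. Percent growth/viability was plotted against concentration to give Emax; negative values indicate lethality.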
On the technique in general: ATP-based viability assays read luminescence as a measure of living cells.

Test [2] deals with Panc 05.04 cells (pancreatic cancer cells; Q699H and K700E mutations in SF3B1). The experiment in a line: Cell viability assay (CellTiter-Glo, 72 hr), Panc 05.04 cells. Format: cell-based. The note with it: Panc 05.04 cells (mutant SF3B1); for Emax: maximum achievable response in tested dose range, negative value = cellular lethality, read-out: Panc 05.04 (mt SF3B1 cells) Emax (%); for GI50: read-out: Panc 05.04 (mt SF3B1 cells), GI50. The essentials:
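Viability was read as ATP content (CellTiter-Glo) after 72 hr compound exposure of Panc 05.04 cells at 37 °C, nine concentrations, 0.1% DMSO. Percentage growth was referenced to time-zero and vehicle wells and plotted against concentration to obtain Emax; negative Emax denotes cell killing.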

Test [3] has as its system WiDr-R cells (colon cancer cells; chemically-induced SF3B1 R1074H mutant). The experiment in a line: Cell viability assay (CellTiter-Glo, 72 hr), resistant WiDr-R cells (counter-screen). The settings on record: WiDr-R cells (SF3B1 R1074H mutation, resistant); read-out: WiDr-R GI50. It is filed as cell-based. Summed up: as §1
Another test has as its target T1, SF3b complexes (Homo sapiens, UniProt O75533+Q7RTV0).
T1 construct: endogenous in cells
The experiment in a line: Scintillation proximity assay (SPA) with [3H]-labelled pladienolide probe. It is filed as binding. The settings on record: wt SF3B1, read-out: SPA (wt SF3B1 cells) IC50. As to the method: Batch immobilization of anti-SF3B1 antibody (MBL) to anti-mouse PVT SPA scintillation beads (PerkinElmer) was prepared as follows: for every 2.5 mg of nuclear extracts, 5 μg anti-SF3B1 antibody and 1.5 mg of beads were mixed in 150 μl PBS. The antibody-bead mixture was incubated for 30 min at RT and centrifuged at 18,000 g for 5 min. 150 μl PBS was used to resuspend every 1.5 mg antibody-bead mixture. The beads were suspended and added to the prepared nuclear extracts. The slurry was incubated for 2 h at 4° C. with gentle mixing. The beads were then collected by centrifuging at 18,000 g for 5 min, and washed twice with PBS+0.1% Triton X-100. After a final centrifugation step, every 1.5 mg of beads was suspended with 150 μl of PBS. The SF3b complexes were tested for [^3H]-labelled pladienolide probe binding ([^3H]-PB), synthesized as previously described (Kotake et al., 2007). 100 μL binding reactions were prepared with 50 μl bead slurry and by adding varying concentrations of PB or PB—OH, and after 30 min pre-incubation, 2.5 nM [^3H]—PB was added. The mixture was incubated for 30 min, and luminescence signals were read using a MicroBeta2 Plate Counter (PerkinElmer). Prism 6 (Graphpad) was used for non-linear regression curve fitting of the data.
(In a scintillation proximity assay essentially only radioactivity close to the scintillant gives light.)

By GI50 is commonly meant the concentration giving 50% growth inhibition. For orientation: IC50 means the point on the concentration scale where inhibition reaches its midpoint. Take `C/C(=C\C=C\[C@@H](C)CCC(=O)N1CCCC1)[C@H]1OC(=O)C[C@H](O)CC[C@@](C)(O)[C@@H](OC(=O)N2CCN(C)CC2)/C=C/[C@@H]1C`: the values for the GI50 in test [1], in test [2] and in test [3] were 0.0264 µM, 0.0273 µM and more than 1 µM, respectively. Also, in test [2], the Emax was -87.3%. Moreover, the IC50 at SF3b complexes was found to be 0.00436 µM.
With `C/C(=C\C=C\[C@@H](C)c1ccccn1)[C@H]1OC(=O)C[C@H](O)CC[C@H](C)[C@@H](OC(=O)N2CCN(C3CCCCCC3)CC2)/C=C/[C@@H]1C`, the GI50 in test [1] stood at 0.0332 µM; in test [2], 0.044 µM; in test [3], 2.43 µM. The Emax in test [2] is -96.3%. At SF3b complexes, the IC50 stood at 0.0106 µM.
With `C/C(=C\C=C\[C@@H](C)COC(=O)N1CCC[C@H]1CO)[C@H]1OC(=O)CCCCC[C@@H](OC(=O)N2CCN(C)CC2)/C=C/[C@@H]1C`, the GI50 amounted to 0.00252 µM in test [1], 0.0029 µM in test [2] and 0.423 µM in test [3]. Also, the Emax in test [2] is -62.8%. Also, the IC50 at SF3b complexes was 0.00361 µM.
Consider `C/C(=C\C=C\[C@@H](C)COC(=O)N1CCCC1)[C@H]1OC(=O)CCCCC[C@@H](OC(=O)N(C)C)/C=C/[C@@H]1C`, for which the GI50 in test [1] came out at 0.135 µM; in test [2], 0.156 µM; in test [3], 6.38 µM. In addition, in test [2], the Emax is -94.8%. Besides, the concentration for half-maximal inhibition (IC50) at SF3b complexes came out at 0.0711 µM.
In the same order, the values of `C/C(=C\C=C\[C@@H](C)COC(=O)N1CCC[C@H]1CO)[C@H]1OC(=O)CCCC[C@@](C)(O)[C@@H](OC(=O)N2CCN(C)CC2)/C=C/[C@@H]1C` are 0.00174 µM, 0.00207 µM, more than 1 µM, -72.3% and 0.00254 µM.
The like results for `C/C(=C\C=C\[C@@H](C)COC(=O)N1CCCC1)[C@H]1OC(=O)C[C@H](O)CC[C@H](C)[C@@H](OC(=O)N2CCN(C)CC2)/C=C/[C@@H]1C` were, in that order, 0.00381 µM, 0.00136 µM, more than 1 µM, -86% and 0.00296 µM.
Regarding `C/C(=C\C=C\[C@@H](C)c1ccccn1)[C@H]1OC(=O)C[C@H](O)CC[C@@](C)(O)[C@@H](OC(=O)N2CCCN(C3CCCCCC3)CC2)/C=C/[C@@H]1C`, the results for the GI50 in test [1], in test [2] and in test [3] were 0.0749 µM, 0.104 µM and more than 1 µM, respectively. Also, the Emax in test [2] is -12.7%. Besides, the IC50 on SF3b complexes is 0.00732 µM.
In the same order, the values of `C/C(=C\C=C\C(C)c1cccnn1)[C@H]1OC(=O)C[C@H](O)CC[C@@](C)(O)[C@@H](OC(=O)N2CCN(C3CCCCCC3)CC2)/C=C/[C@@H]1C` (stereo partly drawn) are 0.0151 µM, 0.022 µM, more than 1 µM, -94.7% and 0.00338 µM.
In the case of `C/C(=C\C=C\[C@@H](C)COC(=O)N1CCCC1)[C@H]1OC(=O)C[C@@H](O)CC[C@](C)(O)[C@@H](OC(=O)N2CCN(C)CC2)/C=C/[C@@H]1C`, the GI50 in test [1] was 0.0152 µM; in test [2] it was 0.00655 µM; in test [3], more than 1 µM. Besides, the Emax in test [2] was -90.2%. Also, the IC50 at SF3b complexes was found to be 0.0478 µM.
With `C/C(=C\C=C\[C@@H](C)COC(=O)N1CCCC1)[C@H]1OC(=O)C[C@H](O)CC[C@](C)(O)[C@@H](OC(=O)N2CCN(C)CC2)/C=C/[C@@H]1C`, the values for the GI50 in test [1], in test [2] and in test [3] were 0.00712 µM, 0.00314 µM and more than 1 µM, respectively. The Emax in test [2] is -83.7%. In addition, at SF3b complexes, the IC50 turned out to be 0.00569 µM.
Regarding `C/C(=C\C=C\[C@@H](C)c1ccccn1)[C@H]1OC(=O)C[C@H](O)CC[C@@](C)(O)[C@@H](OC(=O)N2CCN(C3CCCC3)CC2)/C=C/[C@@H]1C`, the values for the GI50 in test [1], in test [2] and in test [3] were 0.0196 µM, 0.0279 µM and more than 1 µM, respectively. In addition, the Emax in test [2] was -89.5%. At SF3b complexes, the IC50 turned out to be 0.00876 µM.
The like results for `C/C(=C\C=C\[C@@H](C)CNC(=O)C1CCCC1)[C@H]1OC(=O)C[C@H](O)CC[C@@](C)(O)[C@@H](OC(=O)N2CCN(C3CCCCCC3)CC2)/C=C/[C@@H]1C` were, in that order, 0.073 µM, 0.0533 µM, more than 1 µM, -88.4% and 0.0112 µM.
On to `CC(=O)O[C@H]1/C=C/[C@H](C)[C@@H](/C(C)=C/C=C/[C@@H](C)CO)OC(=O)C[C@H](O)CC[C@@]1(C)O`, for which the GI50 in test [1] was 4.04 µM; in test [2], 6.92 µM; in test [3], more than 10 µM. Moreover, the Emax in test [2] is 47.5%. The IC50 on SF3b complexes was found to be 0.326 µM.
In the same order, the values of `C/C(=C\C=C\C(C)c1ccnc(N(C)C)n1)[C@H]1OC(=O)C[C@H](O)CC[C@@](C)(O)[C@@H](OC(=O)N2CCN(C3CCCCCC3)CC2)/C=C/[C@@H]1C` (stereo partly drawn) are 0.0401 µM, 0.0983 µM, more than 10 µM, -94.5% and 0.0161 µM.
In the same order, the values of `C/C(=C\C=C\[C@@H](C)c1ccccn1)[C@H]1OC(=O)C[C@H](O)CC[C@@](C)(O)[C@@H](OC(=O)N2CC3(C2)CN(C2CCCCCC2)C3)/C=C/[C@@H]1C` are 0.13 µM, 0.115 µM, more than 1 µM, -41.9% and 0.0713 µM.
For `C/C(=C\C=C\[C@H](C)c1ccccn1)[C@H]1OC(=O)C[C@H](O)CC[C@@](C)(O)[C@@H](OC(=O)N2CCN(C)CC2)/C=C/[C@@H]1C`, the results for the GI50 in test [1], in test [2] and in test [3] were 0.0343 µM, 0.0536 µM and more than 1 µM, respectively. In addition, the Emax in test [2] was -49.2%. At SF3b complexes, the IC50 turned out to be 0.00569 µM.
Take `C/C(=C\C=C\C(C)c1ccncn1)[C@H]1OC(=O)C[C@H](O)CC[C@@](C)(O)[C@@H](OC(=O)N2CCN(C3CCCCCC3)CC2)/C=C/[C@@H]1C` (stereo partly drawn): the GI50 in test [1] is 0.532 µM; in test [2] it was 0.956 µM; in test [3], more than 1 µM. Besides, the Emax in test [2] was -26.6%. Also, on SF3b complexes, the IC50 amounted to 0.504 µM.
In the same order, the values of `CCCN(C)C(=O)OC[C@H](C)/C=C/C=C(\C)[C@H]1OC(=O)C[C@H](O)CC[C@@](C)(O)[C@@H](OC(C)=O)/C=C/[C@@H]1C` are 0.0391 µM, 0.0425 µM, more than 1 µM, -91.8% and 0.00622 µM.
As for `C/C(=C\C=C\[C@@H](C)c1ccccn1)[C@H]1OC(=O)C[C@H](O)CC[C@@](C)(O)[C@@H](OC(=O)N2CCN(C(C)C)CC2)/C=C/[C@@H]1C`, the GI50 was 0.0318 µM in test [1], 0.0266 µM in test [2] and more than 1 µM in test [3]. In addition, in test [2], the Emax was -90.1%. The IC50 on SF3b complexes worked out at 0.00637 µM.
With `C/C(=C\C=C\[C@@H](C)CCC(=O)N1CCCC1)[C@H]1OC(=O)C[C@H](O)CC[C@@](C)(O)[C@@H](OC(=O)N2CCN(C3CCCCCC3)CC2)/C=C/[C@@H]1C`, the GI50 in test [1] was 0.0127 µM; in test [2], 0.00325 µM; in test [3] it was more than 1 µM. The Emax in test [2] is -86.9%. Moreover, the IC50 at SF3b complexes was determined as 0.00511 µM.
Regarding `C/C(=C\C=C\[C@@H](C)COC(=O)N1CC[C@@H](O)C1)[C@H]1OC(=O)CCCCC[C@@H](OC(=O)N2CCN(C3CCCCCC3)CC2)/C=C/[C@@H]1C`, the GI50 in test [1] was 0.0455 µM; in test [2], 0.0352 µM; in test [3], more than 1 µM. Besides, the Emax in test [2] is -81.6%. For the same molecule, at SF3b complexes, the IC50 was 0.0402 µM.
For the molecule `CC(=O)O[C@H]1/C=C/[C@H](C)[C@@H](/C(C)=C/C=C/[C@@H](C)COC(=O)N2CCC[C@@H]2CO)OC(=O)C[C@H](O)CC[C@@]1(C)O`, the GI50 in test [1] was 0.0247 µM; in test [2] it was 0.0351 µM; in test [3], more than 10 µM. The Emax in test [2] was -83.4%. For the same molecule, the IC50 on SF3b complexes turned out to be 0.0804 µM.
The like results for `C/C(=C\C=C\[C@@H](C)COC(=O)N1CCCC12COC2)[C@H]1OC(=O)C[C@H](O)CC[C@@](C)(O)[C@@H](OC(=O)N2CCN(C)CC2)/C=C/[C@@H]1C` were, in that order, 0.0472 µM, 0.0315 µM, more than 1 µM, 90.7% and 0.00956 µM.
As to `COC(=O)CC[C@H](C)/C=C/C=C(\C)[C@H]1OC(=O)C[C@H](O)CC[C@@](C)(O)[C@@H](OC(=O)N2CCN(C3CCCCCC3)CC2)/C=C/[C@@H]1C`, the figures for the GI50 in test [1], in test [2] and in test [3] were 0.103 µM, 0.0513 µM and more than 1 µM, respectively. The Emax in test [2] was -96.9%. Moreover, the IC50 at SF3b complexes is 0.00454 µM.
